From PMC11982498 (Redox Biology, 2025)
Entries after “also recorded” stand apart in the source; their conditions may differ.

What was measured:
HT-22 cells = assay: MTT cytotoxicity assay, HT-22; type: cell-based; details: Mus musculus, incubation for 48 h
Procedure: SH-SY5Y cells, HepG2 cells, HK-2 cells and HT-22 cells were seeded on 96-well plates (5.0×10^3 per well) with 100 μL of culture medium, and incubated for 12 h at 37 °C in a humidified atmosphere with 5% CO2, and then exposed to various concentrations of B14. After 48 h of treatment at 37 °C in a humidified atmosphere with 5% CO2, 100 μL of 0.5 mg/mL MTT solution was added to each well, and the mixture was further incubated for 4 h. The cells in each well were then treated with DMSO (200 μL for each well), and the culture medium was siphoned off, and the absorbance was recorded at 570 nm. All drug doses were parallel tested in triplicate, and the cytotoxicity was evaluated based on the percentage of cell survival in a dose-dependent manner regarding the negative control. The final IC50 values were determined by using Graph Pad Prism 9.0.

[1] = tested on: BAX gene transcription in brain of APP/PS1 mice; assay: Real-time RT-PCR of mice brain, BAX; type: in vivo
Procedure: Five months old male APP/PS1 mice, weighing 25–33 g, were purchased from Guangdong Medical Laboratory Animal Center and housed in the Laboratory Animal Center of Sun Yat-sen University (Guangzhou, China) for experimentation. […] The mice were housed in a specific pathogen-free environment with a controlled temperature of 22 ± 1 °C and a 12-h dark/light cycle. The mice were fed with a standard diet, and 30 mice were randomly divided into 6 groups (N = 5). […] Behavioral experiments were then conducted, and tissue specimens were collected for biochemical analysis.
^a -∆∆Ct = -[(Ct value of genes in treated sample - Ct value of genes in control) - (Ct value of β-actin in treated sample - Ct value of β-actin in control)]. ^b F: The relative expression fold.
Following sample homogenization, chloroform was added, and the solution was allowed to have phase separation into an upper aqueous layer (containing RNA), an interphase, and a lower organic layer (containing DNA and proteins). RNA was precipitated from the aqueous phase using isopropanol, while DNA was precipitated from the aqueous-organic interphase using ethanol.
Quantitative real-time polymerase chain reaction (qRT-PCR) was performed using the 2× RealStar SYBR Mixture (GenStar, Cat# A301-10, Guangzhou, China) on a LightCycler 480 II real-time PCR system (Roche, USA). Data were analyzed using the 2^−ΔΔCt method. Actin served as the internal control, and relative mRNA levels were normalized accordingly.

BCL-2 i-motif = assay: CD spectra of BCL-2 i-motif; type: binding
Procedure: Figure S5. ESI-MS, UV, CD, and EMSA experiments were performed to examine the effect of B14 on BCL-2 promoter i-motif and G-quadruplex. (A) ESI-MS experiment for oligomer BCL-2 G4 alone, which was annealed in 1 × BPES buffer at pH 7.4. (B) ESI-MS experiment for above oligomer BCL-2 G4 with addition of B14 in 1 × BPES buffer at pH 7.4. (C-D) TO displacement with increasing amount of oligomer BCL-2 i-motif annealed in 1 X BPES buffer at pH 5.5 in the presence of 20 equivalents of B14 or A22. (E) EMSA experiment was performed for the effect of B14 on inducing BCL-2 i-motif formation. The lanes from left to right were as follow: BCL-2 i-motif alone at pH 5.5; BCL-2 i-motif alone at pH 6.2; BCL-2 i-motif plus 1 eq B14 at pH 6.2; BCL-2 i-motif plus 5 eq B14 at pH 6.2; BCL-2 i-motif plus 10 eq B14 at pH 6.2. (F) CD experiment was performed to study the interaction of B14 or A22 with BCL-2 promoter i-motif.
CD measurements were performed on a Chirascan circular dichroism spectrophotometer (Chirascan, England). A 10 mm path length quartz cuvette was used to record the spectra with a wavelength range of 230-350 nm with a 1 nm bandwidth. CD and CD melting experiments were performed at a fixed i-motif or G-quadruplex concentration (1 μM) with or without a fixed concentration (20 μM) of B14 and Curcumin in different buffers. […]

[2] = tested on: BAX, Cleaved Caspase 3, Cleaved Caspase 9, Cyto-C, Apaf-1 in SH-SY5Y cells; assay: Western blot of apoptosis related proteins in Aβ1-42 induced cell model; type: cell-based; details: 25 μM Aβ1-42 induced model
Procedure: Protein samples (25–40 μg) were separated using 10 % SDS-PAGE and subsequently transferred onto PVDF membranes (0.22 μm, Servicebio, Guangzhou, China) via electro transfer. Following blocking with TBST solution (Servicebio, Guangzhou, China) containing 5 % BSA (Solarbio, Beijing, China) for approximately 60 min at room temperature, the membrane was exposed to various primary antibodies overnight at 4 °C on a rotating shaker. Then, the membranes were incubated with HRP-conjugated secondary antibody (Affinity, Changzhou, China) for 2 h. Protein bands were then detected using an ECL kit. The signal intensity of each target protein was quantified using Image J 1.8.0 software (Bio-Rad Laboratories, California, USA).
Primary antibodies for Western blot analysis include BCL-2 (affinity biosciences OH, Cat# AF6139, USA), BAX (affinity biosciences OH, Cat# AF0120, USA), VEGF (affinity biosciences OH, Cat# AF5131, USA), C-MYC (affinity biosciences OH, Cat# AF0358, USA), Caspase9 (affinity biosciences OH, Cat# AF6348, USA), cleaved-Caspase9 (affinity biosciences OH, Cat# AF5240, USA), Caspase3 (affinity biosciences OH, Cat# AF6311, USA), cleaved-Caspase3 (affinity biosciences OH, Cat# AF7022, USA), and Cyto-C (affinity biosciences OH, Cat# AF6139, USA).

[3] = tested on: BCL-2(G4) (DNA, G4) AGGGGCGGGCGCGGGAGGAAGGGGGCGGGAGCGGGGCTG; assay: CD melting, 260 nm; details: K+ 100 mM; Figure S6 legend says Na+ 20 mM; Tris-HCl, pH 7.4; 20 μM B14, 2 μM DNA

O=C(CCN1CCOCC1)Nc1ccc2c(c1)c(=O)c1cc(NC(=O)CCN3CCOCC3)ccc1n2-c1ccc2occc2c1 [Compound B14]
IC50 (HT-22 cells): > 100 µM | -∆∆Ct, BAX ([1]; 10 mg/kg): -0.16 | F = 2^-∆∆Ct (relative expression fold), BAX ([1]; 10 mg/kg): 1.11 | -∆∆Ct, BAX ([1]; 20 mg/kg): 0.08 | F = 2^-∆∆Ct (relative expression fold), BAX ([1]; 20 mg/kg): 0.94 | -∆∆Ct, BAX ([1]; 40 mg/kg): 0.21 | F = 2^-∆∆Ct (relative expression fold), BAX ([1]; 40 mg/kg): 0.86 | CD absorption peak of BCL-2 i-motif (BCL-2 i-motif): stronger effect than A22; also recorded: apparently enhanced absorption peak at 286 nm | levels of pro-apoptotic proteins (Western blot) [2]: decreased levels of pro-apoptotic proteins | ΔTm [3]: -3.13 °C
